Where “and” joins values, the source holds several entries; their conditions need not be identical. Identical values can stand only once.
Assay: Pharmacokinetic study in rat plasma after oral administration of Shenyanyihao oral solution (UPLC-MS/MS, noncompartmental)
Format: in vivo, Sprague-Dawley rats
Settings: for Cmax / Tmax / half-life / MRT: male, Sprague-Dawley; for Cmax: plasma; for MRT: read-out: MRT0‐∞
Procedure: Male Sprague-Dawley rats (180–220 g) were purchased from Shanghai SLAC Laboratory Animal Co., Ltd. (Shanghai, China) and housed in an environmentally controlled room with a natural light-dark cycle for 7 days before the experiment was carried out. The male Sprague-Dawley rats were randomly given a dose of 10 g/kg/day of Shenyanyihao oral solution by oral administration for pharmacokinetic experiments. All animal experiments were carried out according to the Guidelines for the Care and Use of Laboratory Animals and were approved by the Animal Ethics Committee of the Second Military Medical University.
The protein precipitation with methanol was applied for sample preparation. 50 μl of plasma spiked with 50 μl of mixed IS solution were thoroughly mixed with 100 μl methanol by vortexing for 30 s. The mixture was centrifuged at 12,000 rpm for 5 min. An aliquot of 100 μl from the supernatant was transferred and subsequently evaporated to dryness by vacuum concentration. Five μl of the supernatant was transferred for the UPLC-MS/MS analysis.
The analytes in plasma were measured by a simple and sensitive UPLC-MS/MS method. Chromatographic analysis was performed on an Agilent 1290 Infinity UPLC system consisting of a binary pump, a surveyor autosampling system, and a thermostatted column compartment. An Agilent Poroshell 120 EC-C18 column (3.0 mm × 100 mm, 2.7 μm) was used for chromatographic separation. The mobile phases of A (acetonitrile) and B (0.1% formic acid aqueous solution) were eluted at a flow rate of 0.4 ml/min with the following gradient conditions: 0-5 min, 50% A; 5-6 min, 50%-90% A; and 6-10 min, 90% A. The column temperature was maintained at 25°C, the autosampler was conditioned at 4°C, and the injection volume was 5 μl. The analysis time was 10 min per sample. An Agilent 6470 tandem mass spectrometer (Agilent Technologies, USA) equipped with an Agilent Jet Stream Technology (AJS) electrospray source interface (ESI) was used for MS detection. The mass spectrometric detection was optimized simultaneously in the positive and negative ion modes by multiple reaction monitoring (MRM). The main MS parameters of the ionized chamber are as follows: capillary voltage at 4000 V (positive)/3500 V (negative), gas temperature at 350°C, drying gas flow at 11 l/min, nebulizer pressure at 40 psi, sheath gas temperature at 400°C, and sheath gas flow at 11 l/min. Data acquisition and analysis were performed using the Agilent MassHunter WorkStation version B.07.00.
The rats were administered orally with Shenyanyihao oral solution. Blood samples from the ophthalmic venous plexus taken at 0.08, 0.17, 0.25, 0.33, 0.5, 1, 1.5, 2, 4, 6, 8, 12, 24, and 48 h after oral administration and at 0 h (predose) were collected (0.2 ml) into heparinized centrifuge tubes. The blood samples were immediately centrifuged at 4000 rpm at 4°C for 5 min, and the supernatant plasma was transferred into another tube and stored at -80°C until treatment.
Pharmacokinetic parameters were analyzed by a noncompartmental method using the WinNonlin7.0 pharmacokinetic program (Pharsight Corp., USA). The maximum concentration (Cmax) and time to reach the maximum concentration (Tmax ) were measured from values obtained from the concentration-time curve. All results were expressed as mean ± standard deviation (SD).

[1] = rat, po, 10 g/kg/day, rat plasma, oral administration of Shenyanyihao oral solution 10 g/kg/day, n = 6, mean ± SD
[2] = rat plasma, oral administration of Shenyanyihao oral solution 10 g/kg/day, n = 6, mean ± SD

`O=c1cc(-c2ccccc2)oc2cc(O)c(O)c(O)c12` [Baicalein, baicalein] gave a Cmax [1] of 14.2 ± 2.59 ng/mL, a Tmax [2] of 3.6 ± 0.89 h and a half-life [2] of 703 ± 287 min. For the same compound, the MRT [2] was 15.2 ± 5.91 h, the “AUC0‐t” value [2] was 106.77 ± 46.19 ng/ml∗h and the “AUC0‐∞” value [2] was 128.95 ± 53.59 ng/ml∗h. The “AUMC0‐∞” value [2] was 2190.95 ± 1741.10 ng/ml∗h^2, the CL [2] was 8.72 ± 3.03 L/kg/h and the V d [2] was 131.54 ± 23.79 L/kg.

For `O=C(O)[C@H]1O[C@@H](Oc2cc3oc(-c4ccccc4)cc(=O)c3c(O)c2O)[C@H](O)[C@@H](O)[C@@H]1O` [Baicalin, baicalin], the Cmax [1] was over 2500 ng/mL, the Tmax [2] was 2.8 ± 1.1 h and the half-life [2] was 301 ± 31.2 min. For the same compound, the MRT [2] was 8.71 ± 2 h, the “AUC0‐t” value [2] was 26525.1 ± 15523.7 ng/ml∗h and the “AUC0‐∞” value [2] was 26566.8 ± 15520.4 ng/ml∗h. The “AUMC0‐∞” value [2] was 229094.2 ± 146621.6 ng/ml∗h^2, the C max [2] was 2983.4 ± 1344.3 ng/mL and the CL [2] was 1.71 ± 0.90 L/kg/h. It also gave a V d [2] of 12.89 ± 8.01 L/kg.

`O=C(/C=C/c1ccc(O)c(O)c1)O[C@@H]1C[C@](O)(C(=O)O)C[C@@H](O)[C@H]1O` [Chlorogenic acid, chlorogenic acid] showed a Cmax [1] of 3.53 ± 0.52 ng/mL, a half-life [2] of 1000 ± 199 min and an MRT [2] of 15.4 ± 3.31 h. The “AUC0‐t” value [2] was 17.05 ± 2.86 ng/ml∗h, the “AUC0‐∞” value [2] was 21.95 ± 3.34 ng/ml∗h and the “AUMC0‐∞” value [2] was 338.84 ± 99.46 ng/ml∗h^2. It also gave a CL [2] of 41.83 ± 6.79 L/kg/h and a V d [2] of 1001.03 ± 202.53 L/kg.

With `O=C(O)[C@H](O)Cc1ccc(O)c(O)c1` [Danshensu] the “AUC0‐t” value [2] was 556.04 ng/ml∗h and 556.04 ± 165.66 ng/ml∗h, the “AUC0‐∞” value [2] was 569.72 ng/ml∗h and 569.72 ± 165.31 ng/ml∗h and the “AUMC0‐∞” value [2] was 2049.56 ± 1061.35 ng/ml∗h^2. For the same compound, the C max [2] was 181.79 ± 59.58 ng/mL, the CL [2] was 2.47 ± 0.86 L/kg/h and the “MRT0‐∞” value [2] was 3.56 ± 1.71 h. The V d [2] was 13.67 ± 8.51 L/kg and the “t 1/2” value [2] was 3.91 ± 2.34 h.

With `COc1cc(/C=C/C(=O)O)ccc1O` [Ferulic acid, ferulic acid] the “AUC0‐t” value (rat, in vivo, po, 10 g/kg/day) was 76.39 ± 21.43 ng/ml∗h, the “AUC0‐∞” value (rat, in vivo, po, 10 g/kg/day) was 95.70 ± 25.36 ng/ml∗h and the “MRT0‐∞” value (rat, in vivo, po, 10 g/kg/day) was 12.50 ± 4.16 h. The V d (rat, in vivo, po, 10 g/kg/day) was 18.01 ± 5.2 L/kg.

`O=c1c(O[C@@H]2O[C@H](CO)[C@@H](O)[C@H](O)[C@H]2O)c(-c2ccc(O)c(O)c2)oc2cc(O)cc(O)c12` [Isoquercitrin, isoquercitrin] showed a Cmax [1] of 1.65 ± 0.23 ng/mL, a Tmax [2] of 0.5 h and a half-life [2] of 1580 ± 233 min. For the same compound, the MRT [2] was 33.7 ± 3.63 h, the “AUC0‐t” value [2] was 4.75 ± 0.68 ng/ml∗h and the “AUC0‐∞” value [2] was 8.98 ± 1.33 ng/ml∗h. The “AUMC0‐∞” value [2] was 304.35 ± 69.29 ng/ml∗h^2, the CL [2] was 3.40 ± 0.50 L/kg/h and the V d [2] was 127.91 ± 13.82 L/kg.

With `O=C(/C=C/c1ccc(O)c(O)c1)O[C@H]1[C@H](O[C@@H]2O[C@H](CO)[C@@H](O)[C@H](O)[C@H]2O)[C@@H](O)[C@H](OCCc2ccc(O)c(O)c2)O[C@@H]1CO` [Plantamajoside, plantamajoside] the “AUC0‐t” value [2] was 3.99 ± 0.44 ng/ml∗h, the “AUC0‐∞” value [2] was 5.01 ± 0.71 ng/ml∗h and the “AUMC0‐∞” value [2] was 66.31 ± 28.63 ng/ml∗h^2. For the same compound, the C max [2] was 1.31 ± 0.23 ng/mL, the CL [2] was 4.68 ± 0.77 L/kg/h and the “MRT0‐∞” value [2] was 12.76 ± 4.47 h. The T max [2] was 1.40 ± 0.22 h, the V d [2] was 79.97 ± 18.00 L/kg and the “t 1/2” value [2] was 12.33 ± 3.92 h.

Compound `O=C(O)c1ccc(O)c(O)c1` [Protocatechuic acid, protocatechuic acid] has a Cmax [1] of 26.2 ± 11.6 ng/mL, a Tmax [2] of 0.5 h and a half-life [2] of 681 ± 134 min. For the same compound, the MRT [2] was 6.6 ± 2.26 h, the “AUC0‐t” value [2] was 41.96 ± 11.42 ng/ml∗h and the “AUC0‐∞” value [2] was 45.80 ± 12.60 ng/ml∗h. For the same compound, the “AUMC0‐∞” value [2] was 307.02 ± 152.54 ng/ml∗h^2, the CL [2] was 1.52 ± 0.47 L/kg/h and the V d [2] was 24.09 ± 4.86 L/kg.

In the case of `C[N+]1(C)CCC[C@H]1C(=O)[O-]` [Stachydrine, stachydrine], the “AUC0‐t” value [2] is reported as 39256.8 ± 4031.7 ng/ml∗h, the “AUC0‐∞” value [2] is reported as 40196.0 ± 4088.2 ng/ml∗h and the “AUMC0‐∞” value [2] is reported as 515393.7 ± 55002.7 ng/ml∗h^2. The C max [2] was 2673.0 ± 163.0 ng/mL, the CL [2] was 0.06 ± 0.01 L/kg/h and the “MRT0‐∞” value [2] was 12.82 ± 0.25 h. The T max [2] was 3.20 ± 1.10 h, the V d [2] was 0.76 ± 0.11 L/kg and the “t 1/2” value [2] was 9.09 ± 0.51 h. It also gave a C max (rat plasma, oral administration of Shenyanyihao oral solution 10 g/kg/day, n = 6, mean ± SD, listed as stachydine) of over 2500 ng/mL.

Source: paper PMC7443224, “An UPLC-MS/MS Method for Simultaneous Quantification of the Components of Shenyanyihao Oral Solution in Rat Plasma” (BioMed Research International, 2020)
